Assay results reported in patent US4820821A, “Novel pyridazinone-imines and their physiologically tolerated addition salts with acids, their preparation and therapeutic agents containing these compounds” (BASF Aktiengesellschaft, priority 1981, dated 1989).
Structures can show the parent of a compound that is named as a salt. Where two headings read alike, the source gives them in different places.

Tests used:
[1] = system: blood pressure; assay: Effect on the blood pressure: hypertensive action, pithed rat; format: in vivo, male Sprague-Dawley rats; conditions: for R.A. (relative activity), hypertensive action: amezinium = 1.00; for ED 20% hypertensive action (dose which increases the blood pressure of the pithed rat by 20%) / ED20: dose based on the base; for ED20: Rattus norvegicus, read-out: ED 20% hypertensive action (dose which increases the blood pressure of the pithed rat by 20%)
Description: The measurement of the blood pressure in the carotid artery was carried out by means of Statham transducers. The substance was administered in the jugular vein (as an aqueous solution, 1 ml/kg) or intraperitoneally (as a tragacanth suspension, 2 ml/kg). The ED 20% is determined as the dose which increases the blood pressure by 20%.

[2] = system: reserpine-induced hypothermia / blood pressure; assay: Quotient ED 50% antidepressive action / ED 20% hypertensive action; format: in vivo, mouse / rat; conditions: for Q Increase: Table 2, route of hypertensive test not given; for antidepressive and hypertensive action (in words): in vivo;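 for Q Increase: larger quotient means more selective hypertensive action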
Text: This is evident from the fact that the quotient defined above differs wtih respect to the comparative compounds. […] This arises, inter alia, from the fact that the hypertensive ED 20 constitutes the denominator of the quotient. It is possible that the unforeseeable selective direction of action is attributable to the special substitution,in accordance with the invention, at the 4-imino group.

[3] = system: reserpine-induced hypothermia; assay: Antidepressive action: reserpine antagonism, inhibition of reserpine-induced hypothermia of the mouse; format: in vivo, male Swiss mice; conditions: for R.A. (relative activity), reserpine antagonism: amezinium = 1.00, oral; for ED 50% (dose which inhibits the reserpine-induced hypothermia of the mouse by 50%) / ED50: dose based on the base; for ED50: Mus musculus, read-out: ED 50% (dose which inhibits the reserpine-induced hypothermia of the mouse by 50%)
Description: Antidepressants effect dose-dependent inhibition of this hypotherma. The test substances are administered orally 60 minutes before the administration of reserpine.
The dose which effects 50% inhibition of the reserpine-induced hypothermia is determined, as the ED 50%, from the linear regression between log dose (mg/kg) and relative reduction in hypothermia (Δ%).

[4] = Table 1, oral administration 60 min before reserpine
[5] = ip, Table 1, i.p. administration
[6] = iv, Table 1, i.v. administration

Row | SMILES | R.A. (relative activity), hypertensive action ([1]; Table 1, i.p. administration) | R.A. (relative activity), hypertensive action ([1]; Table 1, i.v. administration) | Q (quotient ED 50% antidepressive action/ED 20% hypertensive action) ([2]; hypertensive test i.p.) | Q (quotient ED 50% antidepressive action/ED 20% hypertensive action) ([2]; hypertensive test i.v.) | R.A. (relative activity), reserpine antagonism ([3]; Table 1) | ED20 [1, 5] | ED50 [3, 4] | ED20 [1, 6] | other results
1 | Nc1cc[n+](-c2ccccc2)nc1.[O-][Cl+3]([O-])([O-])[O-] [1-phenyl-4-amino-pyridazinium perchlorate, reference compound] | 1.48 | 2.78 | 1.60 | 22.22 | 1.83 | – | – | – | ED 20% hypertensive action (dose which increases the blood pressure of the pithed rat by 20%) ([1]; Table 1, i.p. administration): 0.25 mg/kg; ED 20% hypertensive action (dose which increases the blood pressure of the pithed rat by 20%) ([1]; Table 1, i.v. administration): 0.018 mg/kg; R.A. (relative activity), hypertensive action ([1]; Table 2): 2.78; ED 20% hypertensive action (dose which increases the blood pressure of the pithed rat by 20%) ([1]; Table 2, route not given): 0.018 mg/kg; Q Increase [2]: 22.22; Q (quotient ED 50% antidepressive action/ED 20% hypertensive action) ([2]; hypertensive test i.p., listed as Example 1 of German Laid-Open Application DOS No. 2,245,248): 1.6; Q (quotient ED 50% antidepressive action/ED 20% hypertensive action) ([2]; hypertensive test i.v., listed as Example 1 of German Laid-Open Application DOS No. 2,245,248): 22.2; antidepressive and hypertensive action (in words) [2]: have an antidepressive and hypertensive action; ED 50% (dose which inhibits the reserpine-induced hypothermia of the mouse by 50%) [3, 4]: 0.40 mg/kg; R.A. (relative activity), reserpine antagonism ([3]; Table 2): 1.83; ED 50% (dose which inhibits the reserpine-induced hypothermia of the mouse by 50%) ([3]; Table 2, oral administration): 0.40 mg/kg
2 | CCCC(=O)N=c1cnn(-c2ccccc2)c(OC)c1 [Example 52] | 0.12 | – | 0.44 | – | 0.52 | 3.16 mg/kg | 1.4 mg/kg | – | –
3 | CCCCCCCC(=O)N=c1ccn(-c2ccccc2)nc1 [Example 8, 1,4-dihydro-4-octanoylimino-1-phenylpyridazine hydrochloride] | – | – | – | – | – | – | – | – | ED20 ([1]; Table 2, route not given): 0.055 mg/kg; R.A. (relative activity), hypertensive action ([1]; Table 2): 0.91; Q Increase [2]: 95.09; ED50 ([3]; Table 2, oral administration): 5.23 mg/kg; R.A. (relative activity), reserpine antagonism ([3]; Table 2): 0.14
4 | CC1(C(=O)N=c2ccn(-c3ccccc3)nc2)CCCCC1 [Example 28] | – | 0.50 | – | 5.80 | 1.26 | – | 0.58 mg/kg | 0.1 mg/kg | –
5 | COc1cc(OC)cc(C(=O)N=c2cnn(-c3ccccc3)c(OC)c2)c1 [Example 62] | – | 0.09 | – | 1.18 | 1.11 | – | 0.66 mg/kg | 0.56 mg/kg | –
6 | O=C(N=c1ccn(-c2ccccc2)nc1)c1ccc(Cl)cc1 [Example 19] | < 0.04 | – | < 0.14 | – | 0.54 | > 10 mg/kg | 1.35 mg/kg | – | –
7 | CCOC(=O)N=c1cnn(-c2ccccc2)c(OC)c1 [Example 69] | – | 0.02 | – | 2.26 | 0.15 | – | 4.86 mg/kg | 2.15 mg/kg | –
8 | CCOC(=O)N=c1ccn(-c2ccccc2)nc1 [Example 29, 1,4-dihydro-4-(ethoxycarbonyl)-imino-1-phenylpyridazine hydrochloride] | – | 0.23 | – | 4.00 | 0.85 | – | 0.86 mg/kg | 0.215 mg/kg | –
9 | O=C(N=c1ccn(-c2ccccc2)nc1)c1ccccc1 [Example 16, 4-benzoylimino-1,4-dihydro-1-phenylpyridazine] | – | – | – | – | – | – | – | – | ED20 ([1]; Table 2, route not given): 0.046 mg/kg; R.A. (relative activity), hypertensive action ([1]; Table 2): 1.09; Q Increase [2]: 28.91; ED50 ([3]; Table 2, oral administration): 1.33 mg/kg; R.A. (relative activity), reserpine antagonism ([3]; Table 2): 0.55
10 | O=C(N=c1ccn(-c2ccccc2)nc1)c1ccc(Cl)cc1Cl [Example 20] | < 0.04 | – | < 0.11 | – | 0.67 | > 10 mg/kg | 1.1 mg/kg | – | –
11 | COc1cc(=NC(=O)c2ccc(C)cc2)cnn1-c1ccccc1 [Example 78] | 0.04 | – | 0.07 | – | 1.00 | 10 mg/kg | 0.73 mg/kg | – | –
12 | O=C(N=c1ccn(-c2ccccc2)nc1)C1CCC1 [Example 11, 4-(cyclobutylcarbonyl)-imino-1,4-dihydro-1-phenylpyridazine hydrochloride] | – | – | – | – | – | – | – | – | ED20 ([1]; Table 2, route not given): 0.077 mg/kg; R.A. (relative activity), hypertensive action ([1]; Table 2): 0.65; Q Increase [2]: 79.09; ED50 ([3]; Table 2, oral administration): 6.09 mg/kg; R.A. (relative activity), reserpine antagonism ([3]; Table 2): 0.12
13 | CNC(=S)N=c1ccn(-c2ccccc2)nc1 [Example 86, 1,4-dihydro-4-(methylthiocarbamyl)-imino-1-phenylpyridazine] | – | < 0.05 | – | < 2.1 | 0.35 | – | 2.1 mg/kg | > 1 mg/kg | –
14 | O=C(N=c1ccn(-c2ccccc2)nc1)OCc1ccccc1 [Example 34] | – | 0.50 | – | 7.10 | 1.03 | – | 0.71 mg/kg | 0.1 mg/kg | –
15 | COc1cc(N)cn[n+]1-c1ccccc1 [Amezinium, 1-phenyl-4-amino-6-methoxypyridazinium methosulfate, reference compound] | 1.00 | 1.00 | 1.98 | 14.66 | 1.00 | 0.37 mg/kg | 0.733 mg/kg | 0.05 mg/kg | ED20 ([1]; Table 2, route not given): 0.05 mg/kg; R.A. (relative activity), hypertensive action ([1]; Table 2): 1.00; Q Increase [2]: 14.66; factor by which the hypertensive dose (ED 20%) is smaller than the antidepressive effective dose (ED 50%) ([2]; compounds of Table 2): 15; Q (quotient ED 50% antidepressive action/ED 20% hypertensive action) ([2]; hypertensive test i.v., listed as amezinium): 14.7; antidepressive and hypertensive action (in words) [2]: have an antidepressive and hypertensive action; R.A. (relative activity), reserpine antagonism ([3]; Table 2): 1.00
16 | CCCCOC(=O)N=c1cnn(-c2ccccc2)c(OC)c1 [Example 71] | – | 0.11 | – | 1.64 | 0.96 | – | 0.76 mg/kg | 0.464 mg/kg | –
17 | CCOc1cc(=NC(C)=O)cnn1-c1ccccc1 [Example 49] | 0.08 | – | 0.37 | – | 0.43 | 4.64 mg/kg | 1.71 mg/kg | – | –
18 | O=C(N=c1ccn(-c2ccccc2)nc1)c1cc(Cl)cc(Cl)c1 [Example 15, 4-(3,5-dichlorobenzoyl)-imino-1,4-dihydro-1-phenylpyridazine] | < 0.04 | – | < 0.27 | – | 0.27 | > 10 mg/kg | 2.7 mg/kg | – | –
19 | CCNC(=S)N=c1ccn(-c2ccccc2)nc1 [Example 87, 1,4-dihydro-4-(ethylthiocarbamyl)-imino-1-phenylpyridazine] | – | < 0.05 | – | < 2.91 | 0.25 | – | 2.91 mg/kg | > 1 mg/kg | –
20 | CCSC(=O)N=c1cnn(-c2ccccc2)c(OC)c1 [Example 73] | < 0.04 | – | < 0.12 | – | 0.60 | > 10 mg/kg | 1.23 mg/kg | – | –
